Experimental data taken from ChEMBL document CHEMBL1201862, “PubChem BioAssay data set” (2004).
The source made the active and inactive calls.

Assays:
[1] = biological target: T1, Delta-type opioid receptor (Homo sapiens, UniProt P41143); experiment: HTS Image-Based Screen for Antagonists of the DOR Receptor. [Related pubchem assays (depositor defined):AID1777, AID1785, AID1786, AID2133]; format: functional
[2] = biological target: T2, Kappa-type opioid receptor (Homo sapiens, UniProt P41145); format: functional
[3] = biological target: T3, Short transient receptor potential channel 4 (Mus musculus, UniProt Q9QUQ5); experiment: mouse TRPC4 channel activators, dose response, cell-based, HEK293 TRPC4/mu-opioid, Fluo-4 calcium (AID 434937); format: functional
T3 sequence (Q9QUQ5 whole entry): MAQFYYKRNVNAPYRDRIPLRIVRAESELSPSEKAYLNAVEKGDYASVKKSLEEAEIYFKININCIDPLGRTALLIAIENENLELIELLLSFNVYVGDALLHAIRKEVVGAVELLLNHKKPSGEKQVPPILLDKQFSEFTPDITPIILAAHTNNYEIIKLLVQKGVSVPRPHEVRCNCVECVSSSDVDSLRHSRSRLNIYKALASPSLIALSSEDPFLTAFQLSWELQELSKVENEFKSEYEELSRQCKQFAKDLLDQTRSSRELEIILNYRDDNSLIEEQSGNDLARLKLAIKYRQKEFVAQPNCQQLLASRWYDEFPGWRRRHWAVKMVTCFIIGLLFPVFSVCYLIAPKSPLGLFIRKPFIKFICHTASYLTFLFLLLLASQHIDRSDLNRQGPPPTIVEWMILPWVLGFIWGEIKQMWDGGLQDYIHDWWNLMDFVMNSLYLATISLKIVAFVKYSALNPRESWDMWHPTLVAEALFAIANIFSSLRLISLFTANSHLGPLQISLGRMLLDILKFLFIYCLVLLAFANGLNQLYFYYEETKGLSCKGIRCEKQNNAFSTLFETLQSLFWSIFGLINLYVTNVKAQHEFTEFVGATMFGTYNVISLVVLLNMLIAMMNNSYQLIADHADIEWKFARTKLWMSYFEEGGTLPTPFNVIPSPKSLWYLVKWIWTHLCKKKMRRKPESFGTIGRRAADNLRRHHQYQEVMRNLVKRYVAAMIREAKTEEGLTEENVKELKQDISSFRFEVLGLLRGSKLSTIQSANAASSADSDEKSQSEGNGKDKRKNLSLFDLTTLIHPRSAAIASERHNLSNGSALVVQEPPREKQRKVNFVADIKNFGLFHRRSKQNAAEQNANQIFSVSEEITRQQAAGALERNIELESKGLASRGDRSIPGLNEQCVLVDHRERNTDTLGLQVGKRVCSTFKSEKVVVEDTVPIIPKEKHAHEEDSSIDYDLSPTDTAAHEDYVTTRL

[4] = biological target: T2, Kappa-type opioid receptor; format: functional; remark: listed apart in the source
[5] = HepG2 cell cytotoxicity, dose response, cytotoxicity control for Shn3 inhibitor project, CellTiter-Glo, cherry-picked (AID 624134); format: functional, cell-based
[6] = HEp-2 cell cytotoxicity, dose response, cytotoxicity control for RSV inhibitor project, HTS (AID 2410); format: functional; details: human respiratory syncytial virus
[7] = biological target: Beta-galactosidase (Escherichia coli, UniProt Q8VNN2); format: functional
[8] = biological target: T1, Delta-type opioid receptor; experiment: HTS Image-Based Screen for Agonists of the DOR Receptor. [Related pubchem assays (depositor defined):AID1777, AID1786, AID2133]; format: functional
[9] = biological target: T4, Histone-lysine N-methyltransferase NSD2 (Homo sapiens, UniProt O96028); format: biochemical
T4 sequence (O96028 whole entry): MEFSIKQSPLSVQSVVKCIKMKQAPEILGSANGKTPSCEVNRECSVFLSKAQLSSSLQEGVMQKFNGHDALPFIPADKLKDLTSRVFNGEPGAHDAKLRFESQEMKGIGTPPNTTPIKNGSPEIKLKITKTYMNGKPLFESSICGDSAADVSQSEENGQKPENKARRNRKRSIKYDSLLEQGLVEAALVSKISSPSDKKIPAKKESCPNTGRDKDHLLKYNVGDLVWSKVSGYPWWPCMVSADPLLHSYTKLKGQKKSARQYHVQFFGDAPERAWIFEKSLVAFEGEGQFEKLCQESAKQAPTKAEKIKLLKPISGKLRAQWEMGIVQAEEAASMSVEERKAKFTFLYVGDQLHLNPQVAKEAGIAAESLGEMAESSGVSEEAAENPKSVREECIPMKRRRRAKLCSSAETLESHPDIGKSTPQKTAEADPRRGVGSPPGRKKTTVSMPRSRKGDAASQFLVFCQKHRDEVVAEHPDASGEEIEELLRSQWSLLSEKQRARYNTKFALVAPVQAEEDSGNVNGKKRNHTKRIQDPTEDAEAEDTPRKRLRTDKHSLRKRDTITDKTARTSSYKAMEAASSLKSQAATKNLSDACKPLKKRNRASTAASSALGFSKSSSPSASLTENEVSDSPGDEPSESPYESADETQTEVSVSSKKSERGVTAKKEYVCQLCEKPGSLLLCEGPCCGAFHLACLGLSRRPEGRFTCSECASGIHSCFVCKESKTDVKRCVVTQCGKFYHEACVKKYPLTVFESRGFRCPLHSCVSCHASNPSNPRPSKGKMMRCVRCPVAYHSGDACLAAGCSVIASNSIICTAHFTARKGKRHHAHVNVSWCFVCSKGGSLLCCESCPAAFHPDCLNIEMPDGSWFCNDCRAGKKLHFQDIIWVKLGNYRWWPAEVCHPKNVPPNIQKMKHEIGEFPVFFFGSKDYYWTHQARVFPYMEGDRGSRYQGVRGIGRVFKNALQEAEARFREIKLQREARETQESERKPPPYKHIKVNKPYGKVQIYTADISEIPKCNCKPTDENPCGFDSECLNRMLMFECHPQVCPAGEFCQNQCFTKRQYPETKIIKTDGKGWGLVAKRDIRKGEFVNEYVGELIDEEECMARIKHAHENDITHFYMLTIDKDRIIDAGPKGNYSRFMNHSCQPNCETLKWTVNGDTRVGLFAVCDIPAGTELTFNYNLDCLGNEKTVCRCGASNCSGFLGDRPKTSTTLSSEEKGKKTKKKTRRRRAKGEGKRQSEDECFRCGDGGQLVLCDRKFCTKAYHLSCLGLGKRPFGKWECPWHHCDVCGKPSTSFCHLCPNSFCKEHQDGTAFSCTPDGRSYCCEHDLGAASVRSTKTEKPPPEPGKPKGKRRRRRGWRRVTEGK

[10] = Shn3 3'UTR reporter inhibitors, dose response, cell-based, Clone20 osteoblasts, firefly luciferase, cherry-picked (AID 624132); format: functional;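 further: firefly luciferase luminescence from reporter carrying the Shn3 3'UTR in osteoblasts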
[11] = tested on: HEK293; experiment: cells; details: Homo sapiens
[12] = microbe, parasite or virus in culture; format: functional; details: Mycobacterium tuberculosis
[13] = tested on: HEK293; experiment: cells; details: Homo sapiens; remark: listed apart in the source
[14] = biological target: Mu-type opioid receptor (Homo sapiens, UniProt P35372); experiment: HTS Image-Based Screen for Agonists of the MOR Receptor. [Related pubchem assays (depositor defined):AID1777, AID1785, AID1786, AID2133]; format: functional;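 further: imaging of beta-arrestin GFP recruitment into spots after receptor activation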
[15] = tested on: HeLa; experiment: HeLa cell cytotoxicity, dose response, cytotoxicity control for MITF activator project, CellTiter-Glo luminescence, cherry-pick samples (AID 540259); format: functional, cell-based; details: Homo sapiens
[16] = cells
[17] = tested on: Vero; experiment: cells; format: functional; details: Chlorocebus sabaeus
[18] = biological target: T5, Fatty acid synthase (Homo sapiens, UniProt P49327); experiment: FAS thioesterase domain inhibitors, dose response, biochemical, kinetic fluorescence intensity (AID 624326); format: functional;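 further: rate of fluorescence rise from hydrolysis of a fluorogenic O-methyl fluorescein ester substrate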
[19] = tested on: HEK293; experiment: inhibitors of LMP1-driven NF-kB reporter, dose response, cell-based, HEK293, luciferase, cherry-pick (AID 588343); format: functional; details: Homo sapiens
[20] = tested on: Vero; experiment: cells; format: functional, cell-based; details: Chlorocebus sabaeus
[21] = biological target: T5, Fatty acid synthase; experiment: FAS thioesterase domain inhibitors, dose response, biochemical, endpoint fluorescence intensity, uHTS hits (AID 624327); format: functional;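 further: fluorescence from hydrolysis of an O-methyl fluorescein acyl ester substrate by the enzyme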
[22] = tested on: Escherichia coli; experiment: microbe, parasite or virus in culture
[23] = growth suppression of beta-catenin-knockout colon cells, dose response, cell-based, HCT116, human colon tumor (AID 1045); format: functional;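 further: HCT116 colon tumor cells with beta catenin knocked out; cells exposed to compound for 60 hours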
[24] = growth suppression of PTEN-null colon cells, dose response, cell-based, HCT116 PTEN knockout (AID 1047); format: functional;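 further: HCT116 colon tumor cells with PTEN knocked out; cells exposed to compound for 60 hours before readout; potency for loss of cell viability measured by luminescence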

T5 sequence (P49327 whole entry, the tested form may be a part): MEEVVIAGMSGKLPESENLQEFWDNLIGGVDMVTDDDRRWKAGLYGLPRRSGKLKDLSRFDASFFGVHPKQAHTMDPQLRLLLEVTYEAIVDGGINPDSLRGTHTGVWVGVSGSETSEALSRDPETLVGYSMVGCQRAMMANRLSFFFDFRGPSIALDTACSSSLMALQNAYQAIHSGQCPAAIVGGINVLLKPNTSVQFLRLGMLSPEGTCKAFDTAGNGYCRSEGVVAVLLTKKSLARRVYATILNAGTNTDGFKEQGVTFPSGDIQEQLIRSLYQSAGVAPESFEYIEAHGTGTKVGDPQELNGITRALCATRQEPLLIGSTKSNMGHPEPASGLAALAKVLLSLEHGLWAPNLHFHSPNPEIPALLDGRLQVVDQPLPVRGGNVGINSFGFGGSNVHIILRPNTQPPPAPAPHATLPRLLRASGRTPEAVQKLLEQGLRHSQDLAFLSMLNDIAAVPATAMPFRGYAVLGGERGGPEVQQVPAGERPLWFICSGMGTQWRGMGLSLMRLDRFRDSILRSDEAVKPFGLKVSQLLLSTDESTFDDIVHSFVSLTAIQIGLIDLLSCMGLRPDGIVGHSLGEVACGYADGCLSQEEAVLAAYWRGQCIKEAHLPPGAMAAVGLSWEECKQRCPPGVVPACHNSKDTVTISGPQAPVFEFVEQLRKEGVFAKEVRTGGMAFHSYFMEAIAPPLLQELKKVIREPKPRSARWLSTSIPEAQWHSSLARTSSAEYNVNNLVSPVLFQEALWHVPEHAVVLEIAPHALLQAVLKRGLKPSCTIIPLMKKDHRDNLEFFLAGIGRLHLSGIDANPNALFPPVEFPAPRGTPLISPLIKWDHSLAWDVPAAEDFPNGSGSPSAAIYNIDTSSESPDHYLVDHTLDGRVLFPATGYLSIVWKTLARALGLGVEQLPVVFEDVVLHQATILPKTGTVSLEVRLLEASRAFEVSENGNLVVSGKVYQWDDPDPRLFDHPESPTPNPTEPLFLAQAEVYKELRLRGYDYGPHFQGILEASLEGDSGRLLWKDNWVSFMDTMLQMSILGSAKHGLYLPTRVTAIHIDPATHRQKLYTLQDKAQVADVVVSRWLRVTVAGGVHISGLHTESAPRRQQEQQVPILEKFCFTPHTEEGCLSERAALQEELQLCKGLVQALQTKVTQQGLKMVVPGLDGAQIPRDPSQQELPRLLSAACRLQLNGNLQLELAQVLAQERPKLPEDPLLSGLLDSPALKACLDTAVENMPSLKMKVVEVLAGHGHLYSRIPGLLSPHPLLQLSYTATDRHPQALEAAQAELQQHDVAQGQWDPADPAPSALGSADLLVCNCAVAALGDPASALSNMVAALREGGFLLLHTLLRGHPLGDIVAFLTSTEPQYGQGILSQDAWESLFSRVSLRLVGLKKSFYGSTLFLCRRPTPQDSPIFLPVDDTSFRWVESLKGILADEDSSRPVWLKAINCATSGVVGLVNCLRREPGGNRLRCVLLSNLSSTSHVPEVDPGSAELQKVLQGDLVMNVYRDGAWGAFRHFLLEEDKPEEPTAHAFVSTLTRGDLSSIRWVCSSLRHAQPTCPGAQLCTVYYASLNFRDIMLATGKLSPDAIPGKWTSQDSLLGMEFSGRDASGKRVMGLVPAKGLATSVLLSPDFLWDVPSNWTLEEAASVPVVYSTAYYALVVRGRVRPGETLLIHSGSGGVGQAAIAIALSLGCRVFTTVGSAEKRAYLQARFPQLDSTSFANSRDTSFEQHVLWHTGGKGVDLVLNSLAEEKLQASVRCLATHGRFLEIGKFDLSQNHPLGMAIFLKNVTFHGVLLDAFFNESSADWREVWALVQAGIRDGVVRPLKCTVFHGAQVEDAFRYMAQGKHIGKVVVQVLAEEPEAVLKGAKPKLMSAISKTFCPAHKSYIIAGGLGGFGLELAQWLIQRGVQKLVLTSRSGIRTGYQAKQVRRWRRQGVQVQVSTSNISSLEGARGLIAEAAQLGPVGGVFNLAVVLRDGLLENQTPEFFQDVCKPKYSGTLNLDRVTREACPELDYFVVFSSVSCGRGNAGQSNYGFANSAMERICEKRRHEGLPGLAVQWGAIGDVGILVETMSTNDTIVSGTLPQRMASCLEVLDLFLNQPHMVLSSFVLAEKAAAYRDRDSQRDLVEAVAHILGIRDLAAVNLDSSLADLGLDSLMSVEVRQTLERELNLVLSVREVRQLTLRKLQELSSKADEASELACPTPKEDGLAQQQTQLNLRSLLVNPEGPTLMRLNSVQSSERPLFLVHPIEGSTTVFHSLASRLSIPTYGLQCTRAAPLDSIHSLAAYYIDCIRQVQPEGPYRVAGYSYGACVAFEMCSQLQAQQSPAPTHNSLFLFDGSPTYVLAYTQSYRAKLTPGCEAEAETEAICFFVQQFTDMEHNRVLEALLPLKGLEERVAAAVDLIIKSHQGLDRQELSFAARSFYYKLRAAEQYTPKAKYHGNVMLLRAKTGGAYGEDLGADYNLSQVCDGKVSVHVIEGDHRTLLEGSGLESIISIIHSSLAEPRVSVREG
T1 sequence (P41143 whole entry): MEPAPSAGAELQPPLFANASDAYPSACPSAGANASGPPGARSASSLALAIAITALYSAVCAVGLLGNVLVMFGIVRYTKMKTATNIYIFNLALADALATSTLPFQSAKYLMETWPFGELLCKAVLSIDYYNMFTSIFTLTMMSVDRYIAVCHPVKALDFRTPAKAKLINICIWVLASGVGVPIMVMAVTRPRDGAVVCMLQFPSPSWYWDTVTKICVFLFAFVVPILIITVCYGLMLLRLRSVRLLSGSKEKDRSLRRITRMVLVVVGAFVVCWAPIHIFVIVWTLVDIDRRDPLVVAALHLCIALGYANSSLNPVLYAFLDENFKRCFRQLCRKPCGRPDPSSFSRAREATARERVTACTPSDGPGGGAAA
T2 sequence (P41145 whole entry): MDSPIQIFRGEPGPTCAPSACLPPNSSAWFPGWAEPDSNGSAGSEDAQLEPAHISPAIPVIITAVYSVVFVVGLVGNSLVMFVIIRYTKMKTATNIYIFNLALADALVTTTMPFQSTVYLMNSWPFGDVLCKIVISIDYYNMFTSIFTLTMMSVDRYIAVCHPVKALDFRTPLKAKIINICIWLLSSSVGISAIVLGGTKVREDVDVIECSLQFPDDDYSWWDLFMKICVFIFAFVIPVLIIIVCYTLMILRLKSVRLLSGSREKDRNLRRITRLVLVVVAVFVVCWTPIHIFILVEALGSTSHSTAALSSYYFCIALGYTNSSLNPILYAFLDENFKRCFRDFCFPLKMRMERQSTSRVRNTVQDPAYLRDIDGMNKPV
Beta-galactosidase, sequence (Q8VNN2 whole entry): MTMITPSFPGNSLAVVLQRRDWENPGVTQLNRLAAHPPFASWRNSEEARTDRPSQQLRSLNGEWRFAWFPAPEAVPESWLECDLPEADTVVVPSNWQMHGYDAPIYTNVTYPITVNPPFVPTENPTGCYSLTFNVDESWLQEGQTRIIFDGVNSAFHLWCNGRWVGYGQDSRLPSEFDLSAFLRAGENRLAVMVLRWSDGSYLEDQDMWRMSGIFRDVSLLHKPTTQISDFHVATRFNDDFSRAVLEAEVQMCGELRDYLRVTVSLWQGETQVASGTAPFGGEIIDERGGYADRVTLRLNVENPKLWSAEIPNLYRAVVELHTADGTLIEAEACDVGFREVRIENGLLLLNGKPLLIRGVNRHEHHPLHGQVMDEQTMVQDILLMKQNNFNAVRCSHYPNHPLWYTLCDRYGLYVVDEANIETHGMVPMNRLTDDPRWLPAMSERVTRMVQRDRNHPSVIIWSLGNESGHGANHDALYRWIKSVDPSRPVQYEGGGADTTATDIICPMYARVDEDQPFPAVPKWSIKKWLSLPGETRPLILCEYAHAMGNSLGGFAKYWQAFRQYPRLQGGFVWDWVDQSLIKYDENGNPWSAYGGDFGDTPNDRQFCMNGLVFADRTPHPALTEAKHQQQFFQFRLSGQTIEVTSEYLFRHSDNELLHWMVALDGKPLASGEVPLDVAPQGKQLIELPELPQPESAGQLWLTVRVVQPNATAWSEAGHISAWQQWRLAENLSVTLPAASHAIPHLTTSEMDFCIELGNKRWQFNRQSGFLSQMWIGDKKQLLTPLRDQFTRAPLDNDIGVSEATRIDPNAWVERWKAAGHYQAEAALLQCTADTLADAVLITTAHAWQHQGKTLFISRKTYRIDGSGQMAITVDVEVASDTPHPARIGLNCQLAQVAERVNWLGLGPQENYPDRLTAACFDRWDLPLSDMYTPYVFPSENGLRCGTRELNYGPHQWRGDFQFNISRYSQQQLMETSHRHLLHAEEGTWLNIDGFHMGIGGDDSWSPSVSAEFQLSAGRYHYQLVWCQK
Mu-type opioid receptor, sequence (P35372 whole entry): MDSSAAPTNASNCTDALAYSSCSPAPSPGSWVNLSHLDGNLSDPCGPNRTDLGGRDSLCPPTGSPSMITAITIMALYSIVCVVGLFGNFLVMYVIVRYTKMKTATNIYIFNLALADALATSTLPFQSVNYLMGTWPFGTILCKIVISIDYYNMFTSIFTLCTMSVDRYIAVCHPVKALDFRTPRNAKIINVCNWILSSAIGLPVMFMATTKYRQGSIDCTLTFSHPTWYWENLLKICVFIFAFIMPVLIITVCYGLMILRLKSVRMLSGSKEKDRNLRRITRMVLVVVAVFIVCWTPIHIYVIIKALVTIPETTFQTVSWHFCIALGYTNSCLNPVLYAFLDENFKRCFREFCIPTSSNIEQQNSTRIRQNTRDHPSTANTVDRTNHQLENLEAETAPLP

Question: Which IC50 [1] does the source give for `COc1cc(OC)c(OC)cc1CCC(C)NCCC(c1ccccc1)c1ccccc1` (stereo not drawn) here?
Answer: 24.4 µM (inactive)

Question: And the IC50 [2]?
Answer: > 32 µM

Question: What about the EC50 [3] of the same compound?
Answer: 6.68 µM (active)

Question: What about the IC50 [4] of the same compound?
Answer: 10.9 µM (active)

Question: What about the AC50 [5] of the same compound?
Answer: 8.98 µM (active)

Question: And the CC50 [6]?
Answer: 14.6 µM (active)

Question: What about the EC50 [7] of the same compound?
Answer: > 31.5 µM (inactive)

Question: And the EC50 [8]?
Answer: > 32 µM (inactive)

Question: What about the AC50 [9] of the same compound?
Answer: 15.8 µM (active)

Question: And the AC50 [10]?
Answer: 3.99 µM (active)

Question: What about the EC50 [11] of the same compound?
Answer: > 59.6 µM (inactive)

Question: What about the CC50 [12] of the same compound?
Answer: 13.9 µM (active)

Question: And the EC50 [13]?
Answer: > 59.6 µM (inactive)

Question: What about the EC50 [14] of the same compound?
Answer: > 32 µM (inactive)

Question: Which AC50 [15] does the source give for `CC(C)Cc1cc(C(=O)Nc2ccc(Br)cc2)no1` here?
Answer: 113 µM (active)

Question: With `O=C(NC(Cc1c[nH]c2ccccc12)C(=O)Nc1ccc(F)c([N+](=O)[O-])c1)c1cccs1` (stereo not drawn) as the compound, how does the IC50 [16] read?
Answer: 10.2 µM (active)

Question: What about the CC50 [6] of the same compound?
Answer: 13.1 µM (active)

Question: And the CC50 [17]?
Answer: 18.5 µM (active)

Question: And the IC50 [18]?
Answer: 3.78 µM (active)

Question: What about the AC50 [19] of the same compound?
Answer: 1.37 µM (active)

Question: What about the IC50 [20] of the same compound?
Answer: 22.4 µM (active)

Question: What about the IC50 [21] of the same compound?
Answer: 7.53 µM (active)

Question: Which AC50 [15] does the source give for `CCc1ccc(NC(=O)C(S)=NC2CCCCC2)cc1` here?
Answer: 182 µM (active)

Question: Which IC50 [16] does the source give for `O=C(c1cccc(COc2cccc3ccccc23)c1)N1CCCC1` here?
Answer: > 50 µM (active)

Question: What about the CC50 [6] of the same compound?
Answer: 21.3 µM (active)

Question: What about the CC50 [17] of the same compound?
Answer: > 25 µM (active)

Question: What about the IC50 [20] of the same compound?
Answer: > 25 µM (active)

Question: For `Cc1ccccc1OCC(=O)Nc1ccc(S(=O)(=O)Nc2onc(C)c2C)cc1`, which AC50 [22] is on record?
Answer: 39.2 µM (active)

Question: For `COc1cccc(CN(C(=O)Cc2c[nH]c3ccccc23)C(C(=O)NC2CCCCC2)c2ccc(C)o2)c1` (stereo not drawn), which EC50 [23] is on record?
Answer: 22.3 µM (active)

Question: What about the AC50 [22] of the same compound?
Answer: 44.4 µM (active)

Question: And the EC50 [24]?
Answer: 19.9 µM (active)

Question: With `Fc1ccccc1CSc1ncnc2c1ncn2C1CCCO1` (stereo not drawn) as the compound, how does the IC50 [20] read?
Answer: 8.43 µM (active)

Question: For `CC(C)(C)c1nn2cnnc2n(/N=C/c2cccc3ccccc23)c1=O`, which AC50 [22] is on record?
Answer: 38.5 µM (active)
